One experiment deals with T1, G9a (Homo sapiens, UniProt Q96KQ7).
T1 sequence (Q96KQ7 1-1210): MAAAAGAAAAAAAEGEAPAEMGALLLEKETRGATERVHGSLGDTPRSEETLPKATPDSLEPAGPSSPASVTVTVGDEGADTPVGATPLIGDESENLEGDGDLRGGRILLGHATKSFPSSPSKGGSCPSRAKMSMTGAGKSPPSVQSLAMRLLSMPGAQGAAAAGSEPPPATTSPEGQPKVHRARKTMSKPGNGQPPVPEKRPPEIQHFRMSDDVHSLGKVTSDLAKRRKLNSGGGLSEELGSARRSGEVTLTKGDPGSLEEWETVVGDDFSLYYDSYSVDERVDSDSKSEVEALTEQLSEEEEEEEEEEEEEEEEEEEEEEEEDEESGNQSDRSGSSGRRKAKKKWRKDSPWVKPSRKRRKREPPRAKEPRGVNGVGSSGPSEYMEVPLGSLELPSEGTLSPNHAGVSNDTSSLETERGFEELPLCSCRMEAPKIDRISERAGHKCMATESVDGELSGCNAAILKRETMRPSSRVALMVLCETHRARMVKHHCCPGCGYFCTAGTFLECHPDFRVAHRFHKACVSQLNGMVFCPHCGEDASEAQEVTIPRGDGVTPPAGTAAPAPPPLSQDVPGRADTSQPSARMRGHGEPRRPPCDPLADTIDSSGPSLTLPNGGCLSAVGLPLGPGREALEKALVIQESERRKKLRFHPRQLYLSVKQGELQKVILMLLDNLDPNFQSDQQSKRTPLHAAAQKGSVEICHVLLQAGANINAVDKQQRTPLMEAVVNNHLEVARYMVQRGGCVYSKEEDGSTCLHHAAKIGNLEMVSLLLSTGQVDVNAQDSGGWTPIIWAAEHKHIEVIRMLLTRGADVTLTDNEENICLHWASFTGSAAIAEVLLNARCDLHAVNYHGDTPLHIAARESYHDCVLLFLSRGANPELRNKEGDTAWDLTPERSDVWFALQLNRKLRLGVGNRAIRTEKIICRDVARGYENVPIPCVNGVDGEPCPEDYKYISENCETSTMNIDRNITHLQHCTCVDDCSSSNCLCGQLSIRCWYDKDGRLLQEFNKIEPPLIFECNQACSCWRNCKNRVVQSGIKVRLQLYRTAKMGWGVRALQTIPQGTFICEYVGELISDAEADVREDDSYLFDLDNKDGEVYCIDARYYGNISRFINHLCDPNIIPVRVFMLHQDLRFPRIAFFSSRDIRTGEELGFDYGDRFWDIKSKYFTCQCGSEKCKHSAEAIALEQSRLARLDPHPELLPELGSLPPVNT
Description: Inhibition of G9a, AlphaLISA assay. It is filed as biochemical.
Details: not given
How it is done:
The G9a assay was conducted in an Alphascreen format to detect methyl modification of a histone H3 peptide by the histone methyl transferase activity of the G9a enzyme.
For the assay, the following buffer was used to set up reactions: 50 mM Tris-HCl pH 7.5, 50 mM NaCl, 1 mM DTT, 0.01% Triton X-100, and 0.005% BSA, with the DTT and BSA added fresh prior to starting the reactions.
IC50 values were calculated by fitting the inhibition percent to the concentration of inhibitor [I] in the assay in equation 1 below, to solve for the IC50.
Background: In Alpha technology, singlet oxygen from a donor bead excites a nearby acceptor bead.
The compound `COc1cc2c(cc1OCCCN1CC[C@H](F)C1)N=C(N)C21CCC1` [Example 12, (S)-6′-(3-(3-fluoropyrrolidin-1-yl)propoxy)-5′-methoxyspiro[cyclobutane-1,3′-indol]-2′-amine] came in with an IC50 of 3.7 nM.

Compound `COc1cc2c(cc1OC)C1(CCCCC1)C(N)=N2` [Example 2, 5′,6′-dimethoxyspiro[cyclohexane-1,3′-indol]-2′-amine] had a half-maximal inhibitory concentration (IC50) of 3540 nM.

Consider `COc1cc2c(cc1OCCCN1CCCC1)N=C(N)C2(C)C` [Example 16, 5-methoxy-3,3-dimethyl-6-(3-(pyrrolidin-1-yl)propoxy)-3H-indol-2-amine], for which inhibition was half-maximal at 0.9 nM (IC50).

As to `COc1cc2c(cc1OCC1CCN(C)C1)N=C(N)C21CCC1` (stereo not shown) [Example 8, 5′-methoxy-6′-((1-methylpyrrolidin-3-yl)methoxy)spiro[cyclobutane-1,3′-indol]-2′-amine], the midpoint of inhibition, the IC50, lay at 1 nM.

Regarding `COc1cc2c(cc1OC)C1(CCC1)C(N)=N2` [Example 3, 5′,6′-dimethoxyspiro[cyclobutane-1,3′-indol]-2′-amine], the 50% inhibitory concentration (IC50) was 153 nM.

As for `COc1cc2c(cc1OCCC1CCCN1C)N=C(N)C21CCC1` (stereo not shown) [Example 10, 5′-methoxy-6′-(2-(1-methylpyrrolidin-2-yl)ethoxy)spiro[cyclobutane-1,3′-indol]-2′-amine], the IC50 stood at 150 nM.

In turn, `COc1ccc2c(c1)C1(CCC1)C(N)=N2` [Example 5, 5′-methoxyspiro[cyclobutane-1,3′-indol]-2′-amine] yielded an IC50 of 18200 nM.

`COc1cc2c(cc1OCCCN1CC(F)C1)N=C(N)C21CCC1` [Example 13, 6′-(3-(3-fluoroazetidin-1-yl)propoxy)-5′-methoxyspiro[cyclobutane-1,3′-indol]-2′-amine]: the half-inhibitory concentration (IC50) stood at 4.8 nM.

`COc1cc2c(cc1OC)C1(CCCC1)C(N)=N2` [Example 4, 5′,6′-dimethoxyspiro[cyclopentane-1,3′-indol]-2′-amine] returned an IC50 of 2460 nM.

As for `COc1cc2c(cc1OCCCN1CC[C@@H](F)C1)N=C(N)C21CCC1` [Example 15, (R)-6′-(3-(3-fluoropyrrolidin-1-yl)propoxy)-5′-methoxyspiro[cyclobutane-1,3′-indol]-2′-amine], 18 nM corresponded to half-maximal inhibition (IC50).

The compound `COc1cc2c(cc1OCCCN1CC(F)(F)C1)N=C(N)C21CCC1` [Example 14, 6′-(3-(3,3-difluoroazetidin-1-yl)propoxy)-5′-methoxyspiro[cyclobutane-1,3′-indol]-2′-amine] came in with a concentration for half-maximal inhibition (IC50) of 1340 nM.

In turn, `COc1cc2c(cc1OCC1CCCN1C)N=C(N)C21CCC1` (stereo not shown) [Example 9, 5′-methoxy-6′-((1-methylpyrrolidin-2-yl)methoxy)spiro[cyclobutane-1,3′-indol]-2′-amine] returned an IC50 of 5 nM.

Take `COc1cc2c(cc1OCCCC1CCCC1)N=C(N)C2(C)C` [Example 17, 6-(3-cyclopentylpropoxy)-5-methoxy-3,3-dimethyl-3H-indol-2-amine]: the IC50 worked out at 12900 nM.

Compound `COc1cc2c(cc1OC)N=C(N)C2` [Example 6, 5,6-dimethoxy-3H-indol-2-amine] returned a half-inhibitory concentration (IC50) of 14400 nM.

`COc1cc2c(cc1OCCCn1ccnc1)N=C(N)C21CCC1` [Example 11, 6′-(3-(1H-imidazol-1-yl)propoxy)-5′-methoxyspiro[cyclobutane-1,3′-indol]-2′-amine] returned an IC50 of 754 nM.

In a further experiment the test system is MV4;11 cells. Description: Differentiation, proliferation, viability and cell cycle of MV4;11 cells, 14 days. It is filed as cell-based, human. To be noted: MV4;11 cells, 0-3 μM. From the text:
MV4;11 cells are a human acute myelocytic leukemia (AML) cell line derived from a human with leukemia.
For `CC1=C(/C=C/C(C)=C/C=C/C(C)=C/C(=O)O)C(C)(C)CCC1` [ATRA, all trans retinoic acid, reference compound], the “cell cycle analysis (PI staining)” value was “more cells were observed to be in the subG1/G0 phase” and the “expression of marker CD11b by flow cytometry (differentiation)” value was “more cells in the population expressed the marker CD11b”.

The same experiment, now with this note: MV4;11 cells, compared with Example 7.
`CC1=C(/C=C/C(C)=C/C=C/C(C)=C/C(=O)O)C(C)(C)CCC1` [ATRA, all trans retinoic acid, reference compound]: the “effect on cell viability” value is given as “less of an effect on cell viability”.

The same experiment, now with this note: MV4;11 cells, increasing concentration.
`CC1=C(/C=C/C(C)=C/C=C/C(C)=C/C(=O)O)C(C)(C)CCC1` [ATRA, all trans retinoic acid, reference compound]: the “growth inhibition and expression of CD11b” value was “lead to growth inhibition and expression of CD11b”.

In general, IC50 refers to the concentration needed to halve the response being measured. A low value points to inhibition by little substance.

These data come from patent US9284272B2, “Inhibitors of histone methyltransferase G9a” (AbbVie Inc., priority 2014, dated 2016).
